Test system: HSV-1 (KOS strain)
Experiment: Plaque Reduction Assay (PRA) for anti-viral activity, HSV-1
Format: cell-based, herpes simplex virus type 1 (KOS strain)
Conditions: product of reduction of Aloe emodin
Procedure: The extract has a direct virucidal effect on HSV under the standardly accepted assay conditions employed. This effect is demonstrable by mixing the test extract directly with HSV and incubating the mixture for 15 minutes at 37° C., then diluting the mixture and assaying for the amount of viable HSV capable of producing plaques in an in vitro cell culture system. A plaque is defined as a visible, localized destruction of cells in culture produced by a single infectious virus particle or plaque forming unit and is the most sensitive assay in virology for quantitating viruses. Depending on the type and concentration of the test extract used, complete inactivation of HSV plaque forming units can be achieved in 15 minutes or less.
Material for testing was obtained from Aloe plants using either whole leaf homogenates, sap or gel. Other materials for testing included dried leaves of Aloe vera and Senna, dried bark of Frangula and Cascara, dried rhizomes of Rhubarb and a commercial preparation of Aloin. All samples were tested for anti-viral activity by a Plaque Reduction Assay (PRA) using monolayer cultures of Vero (African Green Monkey Kidney) cells grown in MEM+5% calf serum. […] After adsorption, the inoculum was removed, a methyl cellulose/MEM overlay medium was added and after three days incubation the number of plaques per dish counted and averaged. […]

SMILES: O=C1c2ccccc2Cc2ccccc21 [anthrone]
- anti-viral activity (in words): loss of anti-viral activity

— US4670265A, “Aloe emodin and other anthraquinones and anthraquinone-like compounds from plants virucidal against herpes simplex viruses” (priority 1984, dated 1987)
